Results published in publication PMC10576086, “Characterization of the horse chestnut genome reveals the evolution of aescin and aesculin biosynthesis” (Nature Communications, 2023).

What was measured:
AcUGT92G7 = system: T1, AcUGT92G7; assay: HPLC glucosyltransferase kinetics; format: biochemical, Aesculus chinensis; details: 1 mM UDP-glucose, Tris-HCl pH 7.0, 37 °C, 0-400 μM acceptor
T1 construct: gene UGT92G7; full-length, MBP or His fusion (pMAL-c2x or pET28a), E. coli, purified

AcUGT84A56 = system: T2, AcUGT84A56; assay: HPLC glucosyltransferase kinetics; format: biochemical, Aesculus chinensis; details: 1 mM UDP-glucose, Tris-HCl pH 7.0, 37 °C, 0-400 μM acceptor
T2 construct: gene UGT84A56; full-length, MBP or His fusion (pMAL-c2x or pET28a), E. coli, purified

Km (AcUGT92G7): 49 µM
Km (AcUGT84A56): 177 µM
Structure (SMILES): O=c1ccc2cc(O)c(O)cc2o1 [compound 4, esculetin]
